Results published in US10633338B2, “Binding Function 3 (BF3) site compounds as therapeutics and methods for their use” (THE UNIVERSITY OF BRITISH COLUMBIA, priority 2014, dated 2020).
Where two headings read alike, the source gives them in different places.

Assays:
androgen receptor (AR) = target: T1, androgen receptor (AR) (Homo sapiens, UniProt P10275, T878A); assay: eGFP cellular AR transcription assay; assay type: cell-based; conditions: 0.1 nM R1881, 3 days incubation
T1 construct: stably transfected eGFP-expressing LNCaP human prostate cancer cells (LN-ARR2PB-eGFP) containing an androgen responsive probasin-derived promoter; endogenous in cells; host or cells: LNCaP (LN-ARR2PB-eGFP)
T1 sequence (P10275 1-920 T878A): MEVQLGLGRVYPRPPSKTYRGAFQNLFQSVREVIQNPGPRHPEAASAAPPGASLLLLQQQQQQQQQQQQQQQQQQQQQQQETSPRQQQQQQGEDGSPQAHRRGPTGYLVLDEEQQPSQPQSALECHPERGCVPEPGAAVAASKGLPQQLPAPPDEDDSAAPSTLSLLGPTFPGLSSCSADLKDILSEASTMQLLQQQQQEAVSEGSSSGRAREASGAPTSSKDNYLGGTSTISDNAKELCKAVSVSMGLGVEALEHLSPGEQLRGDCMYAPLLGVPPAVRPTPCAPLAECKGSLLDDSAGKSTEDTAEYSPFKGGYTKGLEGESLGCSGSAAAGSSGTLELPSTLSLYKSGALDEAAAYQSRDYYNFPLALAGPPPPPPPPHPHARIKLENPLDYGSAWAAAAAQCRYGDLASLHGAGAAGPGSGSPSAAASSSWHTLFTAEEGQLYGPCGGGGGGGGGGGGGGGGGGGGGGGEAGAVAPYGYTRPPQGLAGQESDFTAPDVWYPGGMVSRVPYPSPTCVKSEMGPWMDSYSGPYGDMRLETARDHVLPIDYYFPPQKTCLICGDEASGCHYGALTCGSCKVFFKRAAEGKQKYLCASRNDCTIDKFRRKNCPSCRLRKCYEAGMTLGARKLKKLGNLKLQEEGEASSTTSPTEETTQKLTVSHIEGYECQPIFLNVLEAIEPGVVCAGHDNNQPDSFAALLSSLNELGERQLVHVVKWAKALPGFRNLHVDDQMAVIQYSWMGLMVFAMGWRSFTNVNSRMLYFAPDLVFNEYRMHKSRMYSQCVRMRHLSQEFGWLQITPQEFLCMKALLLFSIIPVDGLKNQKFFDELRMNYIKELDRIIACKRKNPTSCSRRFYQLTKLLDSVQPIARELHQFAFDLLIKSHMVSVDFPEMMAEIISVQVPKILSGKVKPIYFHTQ
Summary of the method: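 AR transcriptional activity is read as eGFP expression from a probasin-derived androgen-responsive promoter. Compound titrated 0-100 μM in the presence of 0.1 nM R1881; 35,000 cells/well.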

PSA = assay: Prostate Surface Antigen (PSA) assay, PSA excreted into the media; assay type: cell-based, human; conditions: PSA excreted into media, same plates as eGFP assay, 3 days incubation; for IC50: read-out: PSA IC50
Procedure: The evaluation of PSA excreted into the media was performed in parallel to the eGFP assay using the same plates (see above description). After the cells were incubated for 3 days 150 μl of the media was taken from each well, and added to 150 μl of PBS.

[1] = LN-ARR2PBeGFP LNCaP cells, read-out: eGFP IC50
[2] = eGFP IC50, LN-ARR2PBeGFP LNCaP cells

Structure (SMILES) | IC50 (androgen receptor (AR); [1]) | IC50 (PSA; Homo sapiens, 72 h) | other results
Fc1ccc(CSc2c[nH]c3ccccc23)cc1 [Compound 13410] | 1200 nM | 2030 nM | –
Cc1[nH]c2ccccc2c1SCc1ccccc1F [Compound 13411] | 2400 nM | 2400 nM | –
Cc1ccccc1CSc1c(C)[nH]c2ccccc12 [Compound 13412] | 900 nM | – | IC50 (PSA): 1230 nM
Cc1[nH]c2ccccc2c1SCc1ccccc1 [Compound 13416] | 2700 nM | 2320 nM | –
Cc1ccc(/N=N/c2c[nH]c3ccccc23)c(C)c1 [Compound 13423] | 1100 nM | 1200 nM | –
Cc1[nH]c2ccccc2c1/N=N/c1ccccc1C(F)(F)F [Compound 13424] | 3700 nM | 3580 nM | –
N#C/C(=C\c1ccc(F)cc1)c1c[nH]c2ccccc12 [Compound 13436] | – | 400 nM | IC50 (androgen receptor (AR); [2]): 600 nM
CC1(C)c2ccccc2NC1c1c[nH]c2ccc(Br)cc12 (stereo not shown) [Compound 13510] | 2500 nM | 1540 nM | –
CC1(C)c2ccccc2NC1c1c[nH]c2cc(Cl)ccc12 (stereo not shown) [Compound 13521] | 400 nM | 260 nM | –
CC1(C)c2ccccc2NC1c1c[nH]c2ccc(Cl)cc12 (stereo not shown) [Compound 13522] | 3400 nM | 2190 nM | –
CC1(C)c2cc(Br)ccc2NC1c1c[nH]c2ccc([N+](=O)[O-])cc12 (stereo not shown) [Compound 13530] | 4700 nM | 1600 nM | –
c1ccc2c(c1)NC(c1c[nH]c3ccccc13)C21CCCCC1 (stereo not shown) [Compound 13534] | 800 nM | 1250 nM | –
COc1ccc2[nH]cc(C3Nc4ccccc4C3(C)C)c2c1 (stereo not shown) [Compound 13536] | 2200 nM | 2520 nM | –
CC1(C)C(c2c[nH]c3c(O)cccc23)=Nc2ccccc21 [Compound 13541] | 500 nM | 940 nM | –
Cc1cccc2c(C3Nc4ccccc4C34CCCCC4)c[nH]c12 (stereo not shown) [Compound 13549] | 1700 nM | 2570 nM | –
Oc1cccc2c(C3Nc4ccccc4C34CCCCC4)c[nH]c12 (stereo not shown) [Compound 13552] | 1130 nM | 1140 nM | –
COc1cccc2c(-c3cc(C)c4ccccc4n3)c[nH]c12 [Compound 13554] | 590 nM | 670 nM | –
CC1(C)c2ccccc2NC1c1c[nH]c2c(CO)cccc12 (stereo not shown) [Compound 13558] | 1600 nM | 2100 nM | –
c1ccc2nc(-c3c[nH]c4ccccc34)ccc2c1 [Compound 13562] | 60 nM | 140 nM | –
CCc1cccc2c(-c3ccc4ccccc4n3)c[nH]c12 [Compound 13567] | 200 nM | 230 nM | –
Brc1ccc2c(-c3ccc4ccccc4n3)c[nH]c2c1 [Compound 13568] | 1300 nM | 1560 nM | –
Cc1ccc2[nH]cc(-c3ccc4ccccc4n3)c2c1 [Compound 13577] | 3200 nM | 1730 nM | –
c1ccc2nc(-c3n[nH]c4ccccc34)ccc2c1 [Compound 13579] | – | 43 nM | IC50 (androgen receptor (AR); [2]): 101 nM
Brc1cccc2c(-c3ccc4ccccc4n3)c[nH]c12 [Compound 13582] | 52 nM | 41 nM | –
Cc1cccc2c(-c3cnc4ccccc4n3)c[nH]c12 [Compound 13585] | 110 nM | 39 nM | –
c1ccc2nc(-c3c[nH]c4ccccc34)ncc2c1 [Compound 13587] | 760 nM | 530 nM | –
Cc1cccc2c(-c3ccc4ccccc4c3)c[nH]c12 [Compound 13591] | 42 nM | 85 nM | –
Cc1cc2ccccc2nc1-c1c[nH]c2c(C)cccc12 [Compound 13596] | – | – | eGFP IC50 (androgen receptor (AR); LN-ARR2PBeGFP LNCaP cells): Inactive; PSA IC50 (PSA): Inactive
Cc1cccc2c(-c3ccc4c(C#N)cccc4n3)c[nH]c12 [Compound 13598] | – | – | eGFP IC50 (androgen receptor (AR); LN-ARR2PBeGFP LNCaP cells): Inactive; PSA IC50 (PSA): Inactive

Further molecules by falling IC50 (androgen receptor (AR); [1]), results first:

IC50 (androgen receptor (AR); [1]) | IC50 (PSA; Homo sapiens, 72 h) | Structure (SMILES) | other results
9300 nM | 6760 nM | COc1ccc(/N=C/c2c[nH]c3ccccc23)cc1 [Compound 13300] | –
7300 nM | 4540 nM | Clc1cc(Cl)cc(/N=C/c2c[nH]c3ccccc23)c1 [Compound 13304] | –
4900 nM | 6650 nM | CC1(C)c2cc(Br)ccc2NC1c1cn(S(=O)(=O)C[C@]23CC[C@@H](CC2=O)C3(C)C)c2ccccc12 (stereo partly shown) [Compound 13524] | –
4800 nM | 2700 nM | CC1(C)c2ccccc2NC1C1CN(CCO)c2ccccc21 (stereo not shown) [Compound 13508] | –
3700 nM | 3190 nM | CC1(C)c2ccc(Br)cc2NC1c1c[nH]c2c(OCc3ccccc3)cccc12 (stereo not shown) [Compound 13543] | –
3210 nM | 4240 nM | Cc1ccc2[nH]cc(C3Nc4ccccc4C34CCCCC4)c2c1 (stereo not shown) [Compound 13548] | –
3100 nM | 7090 nM | CC1(C)c2ccccc2N(Cc2ccc(O)cc2)C1c1c[nH]c2ccccc12 (stereo not shown) [Compound 13525] | –
3000 nM | 1900 nM | CC1(C)c2cc(Br)ccc2NC1c1c[nH]c2ccccc12 (stereo not shown) [Compound 13511] | –
2800 nM | 3100 nM | CCOC(=O)CN1c2ccccc2C(C)(C)C1c1c[nH]c2ccccc12 (stereo not shown) [Compound 13532] | –
2600 nM | 3100 nM | COc1ccc2[nH]c(-c3c[nH]c4ccccc34)cc2c1 [Compound 13509] | –
2300 nM | – | CC1(C)c2ccccc2NC1c1c[nH]c2ncccc12 (stereo not shown) [Compound 13560] | IC50 (PSA): 7500 nM
2110 nM | – | CC1(C)c2ccccc2NC1c1c[nH]c2ncccc12 (stereo not shown) [Compound 13556] | IC50 (PSA): 2180 nM
1500 nM | 1870 nM | Cc1ccc2[nH]cc(C3Nc4ccccc4C3(C)C)c2c1 (stereo not shown) [Compound 13535] | –
1230 nM | 410 nM | Fc1ccc2[nH]cc(-c3cc4ccccc4[nH]3)c2c1 [Compound 13500] | –
800 nM | 730 nM | N#C/C(=C\c1ccc(C(F)(F)F)cc1)c1c[nH]c2ccccc12 [Compound 13434] | –
700 nM | 806 nM | CC1(C)C(c2c[nH]c3ncccc23)=Nc2ccccc21 [Compound 13537] | –
400 nM | 310 nM | NC(=O)c1ccccc1/N=C/c1c[nH]c2ccccc12 [Compound 13427] | –
300 nM | 250 nM | FC(F)(F)c1ccccc1/N=N/c1c[nH]c2ccccc12 [Compound 13259] | –
180 nM | 600 nM | CC1(C)c2ccccc2NC1c1c[nH]c2ccccc12 (stereo not shown) [Compound 13506] | –
166 nM | 99 nM | Cc1cc(-c2c[nH]c3c(C)cccc23)nc2ccccc12 [Compound 13594] | –
144 nM | 48 nM | Fc1ccc2c(-c3ccc4ccccc4n3)c[nH]c2c1 [Compound 13576] | –
